For experiment [1], the target named is T1, Acetylcholinesterase (Bos taurus, UniProt P23795).
T1 sequence (P23795 whole entry): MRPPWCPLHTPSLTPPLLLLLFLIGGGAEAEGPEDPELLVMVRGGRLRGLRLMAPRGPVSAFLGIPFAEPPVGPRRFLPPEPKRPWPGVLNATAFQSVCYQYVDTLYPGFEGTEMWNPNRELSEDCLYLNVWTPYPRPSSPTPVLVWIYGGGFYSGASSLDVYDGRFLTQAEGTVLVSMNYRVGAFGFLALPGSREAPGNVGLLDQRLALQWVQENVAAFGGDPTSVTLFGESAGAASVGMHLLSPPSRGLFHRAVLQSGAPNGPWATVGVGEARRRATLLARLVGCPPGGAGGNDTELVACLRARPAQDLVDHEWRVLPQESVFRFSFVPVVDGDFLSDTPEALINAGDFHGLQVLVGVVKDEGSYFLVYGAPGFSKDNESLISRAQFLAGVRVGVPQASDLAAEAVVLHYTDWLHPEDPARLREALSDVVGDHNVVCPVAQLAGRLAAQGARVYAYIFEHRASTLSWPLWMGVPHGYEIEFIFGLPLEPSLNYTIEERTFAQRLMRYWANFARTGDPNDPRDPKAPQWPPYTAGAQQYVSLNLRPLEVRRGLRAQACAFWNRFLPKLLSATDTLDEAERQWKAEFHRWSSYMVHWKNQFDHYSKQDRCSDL
Description: Inhibition of fetal Bovine serum AChE

For another experiment, the target named is Butyrylcholinesterase (Equus caballus, UniProt Q9N1N9).
Butyrylcholinesterase, sequence (Q9N1N9 whole entry): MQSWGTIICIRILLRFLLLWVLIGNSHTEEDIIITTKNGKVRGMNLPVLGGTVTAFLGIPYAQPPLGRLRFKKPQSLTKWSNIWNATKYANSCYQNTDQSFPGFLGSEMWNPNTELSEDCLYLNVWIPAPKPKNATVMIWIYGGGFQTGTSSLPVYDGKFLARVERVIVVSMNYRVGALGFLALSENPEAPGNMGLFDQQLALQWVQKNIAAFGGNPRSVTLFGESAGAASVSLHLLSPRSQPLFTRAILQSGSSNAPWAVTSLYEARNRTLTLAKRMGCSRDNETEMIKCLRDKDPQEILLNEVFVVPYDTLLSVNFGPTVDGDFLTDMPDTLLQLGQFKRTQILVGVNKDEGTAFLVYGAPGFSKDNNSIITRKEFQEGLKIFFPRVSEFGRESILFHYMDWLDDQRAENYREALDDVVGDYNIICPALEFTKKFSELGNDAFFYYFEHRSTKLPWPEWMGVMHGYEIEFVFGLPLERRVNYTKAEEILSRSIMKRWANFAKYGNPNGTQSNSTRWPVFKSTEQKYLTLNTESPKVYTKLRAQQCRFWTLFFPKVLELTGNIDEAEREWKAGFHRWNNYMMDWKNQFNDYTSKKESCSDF
The target of experiment [2] is Acetylcholinesterase (Homo sapiens, UniProt P22303). Briefly: Inhibitory activity against human AChE.
Acetylcholinesterase (Homo sapiens, UniProt P22303), sequence (P22303 whole entry): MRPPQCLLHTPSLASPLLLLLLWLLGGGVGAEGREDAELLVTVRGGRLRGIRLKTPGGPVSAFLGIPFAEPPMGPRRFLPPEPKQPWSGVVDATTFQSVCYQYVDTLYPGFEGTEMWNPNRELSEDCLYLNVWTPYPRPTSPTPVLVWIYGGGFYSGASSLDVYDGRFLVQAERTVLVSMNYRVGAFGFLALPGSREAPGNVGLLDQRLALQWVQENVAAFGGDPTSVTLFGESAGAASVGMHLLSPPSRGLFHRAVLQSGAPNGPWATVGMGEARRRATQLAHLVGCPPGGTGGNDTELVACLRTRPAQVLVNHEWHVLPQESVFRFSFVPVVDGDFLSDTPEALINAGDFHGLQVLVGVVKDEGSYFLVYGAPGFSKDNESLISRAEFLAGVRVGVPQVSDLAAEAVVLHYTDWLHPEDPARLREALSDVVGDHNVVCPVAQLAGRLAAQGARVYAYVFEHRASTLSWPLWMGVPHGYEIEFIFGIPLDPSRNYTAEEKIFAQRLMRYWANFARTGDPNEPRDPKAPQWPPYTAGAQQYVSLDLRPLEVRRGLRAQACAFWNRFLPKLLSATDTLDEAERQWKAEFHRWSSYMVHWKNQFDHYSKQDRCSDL

Each structure is given as a SMILES string.

This is an account of results in ChEMBL document CHEMBL1145007 (J Med Chem, 2003).

Description for Butyrylcholinesterase: Inhibition of Equine Butyrylcholinesterase

With `c1ccc2c(NCCCCCCCCSc3c4c(nc5ccccc35)CCCC4)c3c(nc2c1)CCCC3`, the Ki – broadly, the equilibrium dissociation constant of an inhibitor or competing ligand from its target – at Acetylcholinesterase [1] stood at 250 nM; on Butyrylcholinesterase, 0.4 nM. The corresponding values for `c1ccc2c(NCCCCCSc3c4c(nc5ccccc35)CCCC4)c3c(nc2c1)CCCC3` are 210 nM and 10 nM. The corresponding values for `CN(CCCNc1c2c(nc3ccccc13)CCCC2)CCCNc1c2c(nc3cc(Cl)cc(Cl)c13)CCCC2` are 3.7 nM and 11 nM. The corresponding values for `CC(=O)N(CCCNc1c2c(nc3ccccc13)CCCC2)CCCNc1c2c(nc3ccccc13)CCCC2` are 1500 nM and 2 nM. Take `CN(CCCNc1c2c(nc3ccccc13)CCCC2)CCCNc1c2c(nc3ccccc13)CCCC2`: the results for the Ki on Acetylcholinesterase [1] and on Butyrylcholinesterase were 0.06 nM and 6 nM, respectively. Compound `CCC1=CC2Cc3nc4cc(Cl)ccc4c(N)c3[C@@H](C1)C2` [HUPRINE X] displayed an inhibition constant (Ki) on Acetylcholinesterase [2] of 0.026 nM.
